According to patent publication US20210022340A1, “USE OF PYRIDINE UREA COMPOUND HAVING SNAIL-KILLING ACTIVITY” (priority 2017, published 2021):
≈ marks a conversion by molar mass, not a printed value.

Experiments:
[1] = test system: Oncomelania hupensis; test: Snail-killing activity against Oncomelania hupensis (immersion method); format: in vivo; settings: 24 h, 24 hours of immersion, 25° C., linear interpolation, read-out: Oncomelania hupensis the LC50 values at the 24th hour
Protocol: (1): Snail-Killing Activity Against Oncomelania hupensis
Oncomelania hupensis was used as a tested sample and tested by the immersion method. Operation process: Weigh various samples accurately (compounds of any of Example 1 to Example 16), dissolve each sample with 0.2 mL of N,N-dimethylformamide, and dilute each sample to 0.2 mg/L of the drug solution with dechlorinated tap water. Put 30 snails in each beaker and pour 100 ml of the above-mentioned drug solution into each beaker. And cover the plastic gauze on the beaker to prevent the snails from climbing to the liquid surface. Place the above beakers accommodating the drug solution and snails in the incubator under the conditions which is at 25° C. constant temperature, and the humidity is maintained at 60%. and the light is fully. After 24 hours of immersion in the incubator, the drug solution is poured, and each sample is washed for 3 times by using water. Then, 15 mL of dechlorinated tap water is added to resuscitate each sample for 1 hour. Each sample is resuscitated for 1 hour again after 24 hours, and then activity of the snails is determined by knocking after 24 hours. Each sample was set to repeat 3 times. The tested concentrations were respectively 0.1 mg/L, 0.5 mg/L, 1 mg/L, 2 mg/L, 5 mg/L, and 10 mg/L. A linear interpolation method was used to draw a curve of the percentage of death at the 24th hour relative to the tested concentrations of the prepared compounds, thereby the LC50 values at the 24th hour are obtained.
A comparison was made with 0.2 mg/L of niclosamide (positive control) and water containing 0.2 mL/L of N,N-dimethylformamide (blank control).

[2] = Acute toxicity to fish; format: in vivo, Danio rerio; settings: Danio rerio, in vivo, pH 7, 96 hour test cycle, 23±1° C., linear interpolation; read-out: Danio rerio the LC50 values at the 96th hour
Protocol: (§1) (2): Study on Acute Toxicity to Fish
(§2) Tested substance: Compound of any of Example 1 to Example 16 of which tested concentrations were respectively 0 mg/L, 20 mg/L, 40 mg/L, 60 mg/L, 80 mg/L, and 100 mg/L.
(§3) Tested fish species: Danio rerio of which body length was 20±1 mm and weight was 0.3±0.1 g.
(§4) Test process: The tested fish was domesticated in continuous aerated diluted water for 7 days before the test. The water quality and lighting conditions during the domestication were consistent with the conditions during the test. Feeding was stopped 24 hours before the test. […] The water temperature during the test was constant at 23±1° C. The dissolved oxygen content during the test should be higher than 60% of the air saturation value, and the pH value was 7.0±0.2. The test cycle is 96 hours. The poisoning symptoms and mortality of the tested fish were observed and recorded at any time within 3 hours to 6 hours after starting the test, and then the poisoning symptoms and mortality of the tested fish at different concentrations were observed and recorded at 24th hour, 48th hour, 72th hour, and 96th hour. The criterion for judging dead fish is to knock the tail of the fish with glasses. If the fish had no action, it is judged that the fish was dead.
(§5) A linear interpolation method was used to draw the curve of the percentage of death relative to the tested concentrations of the compound prepared in Example 4 at 96 hour, thereby the LC50 values at 96th hour are obtained, which was treated with water as a blank control. The LC50 value of the other compound at 96th hour was obtained in this way.

[3] = test system: Danio rerio; test: Acute toxicity to fish; format: in vivo; settings: applied for 1 hour
[4] = test system: Danio rerio; test: Acute toxicity to fish; format: in vivo; settings: 96 hour test cycle, 23±1° C., linear interpolation
Protocol: as §1, §2, §3, §4, §5

SMILES	LC50 [1]	LC50 at 96 h [2]	fish death [3]	Danio rerio the LC50 values at the 96th hour [4]
O=C(Nc1cccnc1)Nc1cc(F)cc(F)c1 [Compound 9]	4.3 µg/mL (≈ 17.3 µM)	> 100 µg/mL		
O=C(Nc1ccc(OC(F)(F)F)cc1)Nc1cccnc1 [Compound 2]	3.5 µg/mL (≈ 11.8 µM)	> 100 µg/mL		
Cc1ccc(NC(=O)Nc2cccnc2)cc1 [Compound 16]	8.1 µg/mL (≈ 35.6 µM)	> 100 µg/mL		
O=C(Nc1ccc([N+](=O)[O-])cc1)Nc1cccnc1 [Compound 10]	3.8 µg/mL (≈ 14.7 µM)	> 100 µg/mL		
O=C(Nc1cccnc1)Nc1ccc(F)cc1C(F)(F)F [Compound 5]	8.9 µg/mL (≈ 29.7 µM)	> 100 µg/mL		
O=C(Nc1ccc(Cl)cc1)Nc1cccnc1 [Compound 14]	~0.5 µg/mL (≈ 2.02 µM)	15 µg/mL (≈ 60.6 µM)		
O=C(Nc1cccnc1)Nc1ccccc1Cl [Compound 6]	9.2 µg/mL (≈ 37.1 µM)	> 100 µg/mL		
O=C(Nc1cccnc1)Nc1ccc(Cl)cc1Cl [Compound 8]	5.8 µg/mL (≈ 20.6 µM)	> 100 µg/mL		
O=C(Nc1cccnc1)Nc1ccc(Cl)cc1C(F)(F)F [Compound 7]	6.7 µg/mL (≈ 21.2 µM)	> 100 µg/mL		
O=C(Nc1ccc(Br)cc1)Nc1cccnc1 [Compound 13]	~0.5 µg/mL (≈ 1.71 µM)	15 µg/mL (≈ 51.3 µM)		
O=C(Nc1cccnc1)Nc1ccc(F)cc1F [Compound 1]	5 µg/mL (≈ 20.1 µM)	> 100 µg/mL		
O=C(Nc1ccc([N+](=O)[O-])cc1Cl)c1cc(Cl)ccc1O [niclosamide, reference compound]	0.6 µg/mL (≈ 1.83 µM)	0.21 µg/mL (≈ 0.642 µM)	all fish is resulted in almost death	0.2 µg/mL
Cc1cccc(NC(=O)Nc2cccnc2)c1 [Compound 12]	8.2 µg/mL (≈ 36.1 µM)	> 100 µg/mL		
O=C(Nc1cccnc1)Nc1cccc(Cl)c1 [Compound 4]	5.8 µg/mL (≈ 23.4 µM)	> 100 µg/mL		
O=C(Nc1cccnc1)Nc1cccc(F)c1 [Compound 11]	4.9 µg/mL (≈ 21.2 µM)	> 100 µg/mL		
O=C(Nc1cccnc1)Nc1ccccc1F [Compound 3]	4.8 µg/mL (≈ 20.8 µM)	> 100 µg/mL		
Cc1ccccc1NC(=O)Nc1cccnc1 [Compound 15]	7.2 µg/mL (≈ 31.7 µM)	> 100 µg/mL		
